From patent US6703386B2, “Diphenylazetidinone derivatives, process for their preparation, medicaments comprising these compounds and their use” (Aventis Pharma Deutschland GmbH, priority 2000, dated 2004)

How the values were obtained:
[1] = system: cholesterol absorption (uptake of ^14C-cholesterol by the liver); test: Cholesterol absorption test: uptake of 14C-cholesterol by the liver after peroral test meal; type: in vivo, NMRI mice; conditions: dose at which uptake of 14C-cholesterol by the liver is halved vs control group, mouse
Text: Effect on Cholesterol Absorption+^3H-taurocholic Acid Excretion Using Fecal Excrement of Mice, Rats or Hamsters
NMRI mice, Wistar rats, or Golden Syrian hamsters (in groups of n=4-6) are kept in metabolic cages, where they are fed with a standard diet (Altromin, Lage (Lippe)). The afternoon prior to the administration of the radioactive tracers (^14C-cholesterol), the feed is removed and the animals are adapted to grates.
Additionally, the animals are labeled s.c. with ^3H-TCA (taurocholic acid) (for example 1 μCi/mouse up to 5 μCi/rat) 24 hours prior to the peroral administration of the test meal (^14C-cholesterol in Intralipid® 20, Pharmacia-Upjohn).
Cholesterol absorption test: 0.25 ml/mouse Intralipid® 20 (Pharmacia-Upjohn) ((spiked with 0.25 μCi of ^14C-cholesterol in 0.1 mg of cholesterol) is administered perorally by gavage.
Test substances are prepared separately in 0.5% methylcellulose (Sigma)/5% Solutol (BASF, Ludwigshafen) or a suitable vehicle.
The administration volume of the test substance is 0.5 ml/mouse. The test substance is administered immediately prior to the test meal (Intralipid labeled with ^14C-cholesterol) (cholesterol absorption test).
The feces are collected over a period of 24 h: fecal elimination of ^14C-cholesterol and ^3H-taurocholic acid (TCA) is determined after 24 hours.
The livers are removed and homogenized, and aliquots are incinerated in an oximate (Model 307, Packard) to determine the amount of ^14C-cholesterol which had been taken up/absorbed.
The amount of ^14C-cholesterol taken up by the liver is based on the administered dose. The ED50 values are interpolated from a dose-effect curve as the dose at which the uptake of ^14C-cholesterol by the liver is halved (50%), based on a control group.

Caco-2 cell monolayers = test: Bioabsorption in the Caco cell model (Hilgers et al.); type: in vitro ADME; conditions: estimated from Caco cell model
Text: The bioabsorption of the compounds of the formula I can be examined using the Caco cell model (A. R. Hilgers et al., Caco-2 cell monolayers as a model for drug transport across the intestinal mucosa, Pharm. Res. 1990, 7, 902).
Below is a bioabsorption measurement for a reference compound

Row | Estimated human bioabsorption (Caco-2 cell monolayers) | Structure (SMILES) | ED50 (liver) [1]
1 |  | O=C(CCCCCCCCCCC(=O)Nc1ccccc1C(Nc1ccccn1)C(c1ccccn1)C(O)c1ccccc1)NCc1cccc(C2C(CCC(O)c3ccc(F)cc3)C(=O)N2c2ccc(F)cc2)c1.O=C(O)C(F)(F)F (stereo not shown) [XVI, (1-{2-[11-(3-{1-(4-Fluorophenyl)-3-[3-(4-fluorophenyl)-3-hydroxypropyl]-4-oxoazetidin-2-yl}benzylcarbamoyl)undecanoylamino]phenyl}-3-hydroxy-3-phenyl-2-pyridin-2-ylpropyl)pyridin-2-yl ammonium trifluoroacetate] | 0.03 mg/mouse
2 | 100% | O=C1[C@H](CC[C@H](O)c2ccc(F)cc2)[C@@H](c2ccc(O)cc2)N1c1ccc(F)cc1 [Ezetimibe] | 
3 |  | O=C(COCCOCC(=O)Nc1ccccc1C(Nc1ccccn1)C(c1ccccn1)C(O)c1ccccc1)NCc1ccc(C2C(CCC(O)c3ccc(F)cc3)C(=O)N2c2ccc(F)cc2)cc1.O=C(O)C(F)(F)F (stereo not shown) [XIX, {1-[2-(2-{2-[(4-{1-(4-Fluorophenyl)-3-[3-(4-fluorophenyl)-3-hydroxypropyl]-4-oxoazetidin-2-yl}benzylcarbamoyl)methoxy]ethoxy}acetylamino)phenyl]-3-hydroxy-3-phenyl-2-pyridin-2-ylpropyl}pyridin-2-ylammonium trifluoroacetate] | 0.1 mg/mouse
4 |  | O=C(COCCOCCOCC(=O)Nc1ccccc1C(Nc1ccccn1)C(c1ccccn1)C(O)c1ccccc1)NCc1cccc(C2C(CCC(O)c3ccc(F)cc3)C(=O)N2c2ccc(F)cc2)c1.O=C(O)C(F)(F)F (stereo not shown) [XVIII, (1-{2-[2-(2-{2-[(3-{1-(4-Fluorophenyl)-3-[3-(4-fluorophenyl)-3-hydroxypropyl]-4-oxoazetidin-2-yl}benzylcarbamoyl)methoxy]ethoxy}ethoxy)acetylamino]phenyl}-3-hydroxy-3-phenyl-2-pyridin-2-ylpropyl)pyridin-2-ylammonium trifluoroacetate] | 0.3 mg/mouse
